Here are results for one compound from patent US9560851B2, “Pesticidal mixtures including spiroheterocyclic pyrrolidine diones” (Syngenta Participations AG, priority 2012, dated 2017).

The subject of assay [1] is Myzus persicae (Green Peach Aphid). Briefly: Myzus persicae feeding/residual contact activity, preventive (sunflower leaf discs). It counts as in vivo. The conditions noted are these: Acetamiprid alone, 6 DAT. On the procedure: Myzus persicae (Green Peach Aphid):
feeding/residual contact activity, preventive
Sunflower leaf discs were placed on agar in a 24-well microtiter plate and sprayed with the DMSO test solutions of Mixtures (as provided by Table 45). After drying, the leaf discs were infested with an aphid population of mixed ages. After an incubation period of 6 DAT (days after treatment), samples were checked for mortality.

In assay [2] the test system is Tetranychus urticae (Two-Spotted Spider Mite). As to the kind of experiment: Tetranychus urticae feeding/contact activity, preventive (bean leaf discs). Type of assay: in vivo. The conditions noted are these: mobile stages. The text has this: Tetranychus urticae (Two-Spotted Spider Mite): feeding/contact activity, preventive
Bean leaf discs on agar in 24-well microtiter plates were sprayed with the DMSO test solutions of certain Mixtures (as provided by Table 45). After drying, the leaf discs were infested with mite populations of mixed ages. 8 days later, discs were checked for mortality against mobile stages.

With `C/C(=N\C#N)N(C)Cc1ccc(Cl)nc1` [Acetamiprid], the “AVERAGE DEAD IN % AFTER 6 DAYS” value in assay [1] (0.1 PPM AI) was 0%; in assay [1] (0.2 PPM AI) it was 0%; in assay [1] (0.4 PPM AI), 0%; in assay [1] (0.8 PPM AI), 0%; in assay [1] (1.6 PPM AI), 27%. For the same compound, the “AVERAGE DEAD IN % AFTER 8 DAYS” value in assay [2] (Table 47, Acetamiprid alone, 50 PPM AI) is 0%; in assay [2] (Table 47, Acetamiprid alone, 100 PPM AI), 0%; in assay [2] (Table 47, Acetamiprid alone, 200 PPM AI) it was 0%; in assay [2] (Table 47, Acetamiprid alone, 400 PPM AI), 0%; in assay [2] (Table 47, Acetamiprid alone, 800 PPM AI), 0%; in assay [2] (Table 48, Acetamiprid alone, 50 PPM AI), 0%. In addition, the “AVERAGE DEAD IN % AFTER 8 DAYS” value is listed as 0% in assay [2] (Table 48, Acetamiprid alone, 100 PPM AI); 0% in assay [2] (Table 48, Acetamiprid alone, 200 PPM AI); 0% in assay [2] (Table 48, Acetamiprid alone, 400 PPM AI); 0% in assay [2] (Table 48, Acetamiprid alone, 800 PPM AI).
